Among the data in patent US20080312271A1, “AZABENZIMIDAZOLYL COMPOUNDS” (Pfizer Inc., priority 2006, published 2008) are EC50 values, retold here.

The target in the first test is T1, mGluR2 receptor (metabotropic glutamate receptor 2) (Homo sapiens, UniProt Q14416).
T1 construct: expressed in transfected cells
T1 sequence (Q14416 19-872, species assumed): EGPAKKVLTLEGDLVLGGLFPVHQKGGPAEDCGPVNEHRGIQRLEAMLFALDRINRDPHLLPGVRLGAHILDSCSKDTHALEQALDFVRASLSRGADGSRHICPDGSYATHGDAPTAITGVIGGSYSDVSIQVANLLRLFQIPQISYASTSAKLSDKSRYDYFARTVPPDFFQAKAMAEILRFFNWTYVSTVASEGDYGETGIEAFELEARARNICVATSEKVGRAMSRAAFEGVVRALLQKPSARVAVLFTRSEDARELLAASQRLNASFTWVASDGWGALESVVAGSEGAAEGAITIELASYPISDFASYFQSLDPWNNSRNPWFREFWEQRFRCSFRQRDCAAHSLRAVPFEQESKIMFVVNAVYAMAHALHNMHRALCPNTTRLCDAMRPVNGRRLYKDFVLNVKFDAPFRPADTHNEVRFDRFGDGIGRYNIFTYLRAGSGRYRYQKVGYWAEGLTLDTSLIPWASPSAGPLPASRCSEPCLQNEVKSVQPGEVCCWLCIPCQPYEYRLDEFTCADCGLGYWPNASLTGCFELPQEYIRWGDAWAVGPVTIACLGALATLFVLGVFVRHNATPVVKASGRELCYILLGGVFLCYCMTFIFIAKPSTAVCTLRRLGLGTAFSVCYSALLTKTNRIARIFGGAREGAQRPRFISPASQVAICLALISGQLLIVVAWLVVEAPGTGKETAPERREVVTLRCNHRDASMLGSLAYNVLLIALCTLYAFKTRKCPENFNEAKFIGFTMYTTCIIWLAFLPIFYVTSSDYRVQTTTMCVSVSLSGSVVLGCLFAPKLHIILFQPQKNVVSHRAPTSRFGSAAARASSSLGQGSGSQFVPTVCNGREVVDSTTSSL
The experiment in a line: mGluR2 Potentiator Screen, FLIPR, EC10-EC20 glutamate challenge.
Conditions: not given
It is filed as cell-based. As for the experimental part:
Procedure for mGluR2 Potentiator Screen NLB methods EC10-EC20 Challenge Cell Culture and Plating:
Cells used for this screen are HEK cells stably transfected with the mGluR2 receptor (metabotropic glutamate receptor 2) and the Gα15 G protein. Clones were identified by functional activity (FLIPR). Cells are grown in growth media containing: DMEM High Glucose with Glutamine and Na Pyruvate (GIBCO), 10% (v/v) Heat inactivate FBS (GIBCO), G418 500 ug/ml (from 50 mg/ml stock) (GIBCO) and Blasticidin 3 ug/ml (from 5 mg/ml stock made in H2O) (Invitrogen).
2 days before the assay cell are trypsinized with 0.25% trysin/EDTA (GIBCO), spun down at 1000 rpm for 5 minutes, resuspended in growth media and plated on polystyrene 384 well black wall 1 clear bottom poly-D-lysine coated plates at a density of approximately 18,000 cells/well in a volume of 50 μL per well. One day before the assay the growth media is removed from the plates by flicking, and replaced with media containing DMEM High Glucose without Glutamine and Na Pyruvate (GIBCO) and 10% (v/v) dialyzed FBS (GIBCO). The reason for the removal of glutamine the day before the assay is to minimize the amount of glutamate that will be present during the assay, as endogenous glutarnate released from the cells can reduce the fluorescent response and interfere with the FLIPR screen.
FLIPR Methods and Data Analysis:
On the day of the assay, the FLIPR assay is performed using the following methods.
The pH is adjusted to 7.4 with 1 M NaOH. Prepare a 2 mM (approx.) stock solution of Fluo-4,am (Molecular Probes) dye in DMSO-22 μl DMSO per 50 ug vial (440 μL per 1 mg vial). Make a 1 mM (approx.) flou-4, PA working solution per vial by adding 22 μl of 20% pluronic acid (PA), (Molecular Probes) in DMSO to each 50 ug vial (440 μL per 1 mg vial). Prepare a 250 mM Probenecid (Sigma) stock solution by dissolving 0.71 g into 5 ml 1N NaOH and 5 ml assay buffer (for each liter of assay wash buffer)L Make 4 uM (approx.) dye incubation media by adding […] per 11 ml DMEM high glucose without glutamine (220 ml per 1 mg vial). Add 110 μL probenecid stock per 11 ml (2.5 mM final [concentration]). To the dye media add 3 units/ml of glutamic-pyruvic transaminase (GPT, Sigma) and 3 mM Na Pyruvate. The assay has worked with dye concentrations from 2 uM to 8 uM dye as well. To the assay buffer from drug preparation, add 1.83 mls DMSO and 400 μL 15.8% P104 (from New Leads biology) per liter for final concentrations of 0.18% DMSO and 0.006% P104. To the assay buffer for cell washing, add probenecid in the same manner and concentration that was used for the dye media.
Remove growth media from cell plates by flicking. Add 50 μl/well dye solution. Incubate 1 hour at 37° C. and 5% CO2. Remove dye solution and wash 3 times with assay buffer+probenecid (100 μl probenecid stock per 10 ml buffer), leaving 30 μL/well assay buffer. Wait at least 10-15 minutes. Compounds and agonist challenge additions are performed with the FLIPR. The 1st addition is for test compounds, which are added as 15 μL of 4×[concentration] of potentiator. The second 2nd addition is 15 μL of 4×[concentration] of agonist or challenge. This achieves 1× concentration of all compounds only after 2nd addition. The 1st and 2nd additions are performed separately using the FLIPR, which give 2 different data files. Compounds are pretreated at least 30 minutes before agonist addition,
Results are analyzed by dividing the peak fluorescent value of the FLIPR response by the […] to achieve a ratio response. The ratios are then analyzed by curve fitting programs. […] Maximum values for dose response curves (forced fitting) are derived from standards on the plate.
Compound Preparation and Glutamate Challenge:
Compounds are delivered as 10 mM DMSO stocks or as powders, Powders are solubilized in DMSO at 10 mM (as solubility allows). Compounds are sonicated in a heated water bath (35-40° C.) for at least 20 minutes.
With `CC(C)Oc1ccc([C@H]2CCN(Cc3nc4ncccc4n3C)C[C@H]2C)cc1Cl` (relative stereo) [compound 195], the EC50 – broadly, the midpoint of the concentration-response curve – is 506 nM. On the same count and under the same terms, for `C[C@@H]1CN(Cc2nc3ncccc3n2C)CC[C@@H]1c1ccc(Cl)cc1Cl` (single isomer, unassigned) [compound 185] the value was 64.2 nM. The same measure, in the same setting: to `COc1cc(F)ccc1C1CCN(Cc2nc3ncccc3n2C)CC1` [compound 87] belongs 212 nM. Same read-out and setting: for `Cn1c(CN2CCC(c3ccc(C(F)(F)F)cc3)C(C)(C)C2)nc2ncccc21` (stereo not shown) [compound 76] the value was 745 nM; for `C[C@@H]1CN(Cc2nc3ncccc3n2C)CC[C@@H]1c1ccc(Cl)cc1F` (relative stereo) [compound 115], 19.5 nM; for `Cn1c(CN2CCC(c3ccc(Cl)cc3)CC2)nc2ncccc21` [compound 80], over 9110 nM.

Take `C[C@@H]1CN(Cc2nc3ncccc3n2C)CC[C@@H]1c1ccc(C(F)(F)F)cc1F` (single isomer, unassigned) [compound 139]: the EC50 was 993 nM.

Consider `C[C@@H]1CN(Cc2nc3ncccc3n2C)CC[C@@H]1c1ccc(C(F)(F)F)cc1C(F)(F)F` (relative stereo) [compound 149], for which the EC50 amounted to 24.8 nM. Same read-out and setting: to `C[C@@H]1CN(Cc2nc3ncccc3n2C)CC[C@@H]1c1ccc(F)c(Cl)c1` (relative stereo) [compound 111] belongs 203 nM; to `CCOc1ccc(Cl)cc1C1CCN(Cc2nc3ncccc3n2C)CC1` [compound 41], 4810 nM; to `Cc1cc(Cl)ccc1[C@H]1CCN(Cc2nc3ncccc3n2C)C[C@H]1C` (relative stereo) [compound 160], 102 nM. The same measure, in the same setting: to `Cn1c(CN2CCC(c3ccc(C(F)(F)F)cc3)CC2)nc2cnccc21` [compound 47] belongs 168 nM; to `C[C@@H]1CN(Cc2nc3cnccc3n2C)CC[C@@H]1c1ccc2c(c1)CCO2` (relative stereo) [compound 201], over 1070 nM. On the same count and under the same terms, for `Cc1cc(F)ccc1[C@H]1CCN(Cc2nc3ncccc3n2C)C[C@H]1C` (relative stereo) [compound 206] the value was 88.6 nM; for `CC(C)Oc1ccc([C@H]2CCN(Cc3nc4ncccc4n3C)C[C@H]2C)c(Cl)c1` (single isomer, unassigned) [compound 221], 77.8 nM; for `CO[C@@H]1CN(Cc2nc3cnccc3n2C)CC[C@@H]1c1ccc(C(F)(F)F)cc1` (relative stereo) [compound 227], 606 nM. On to `Cn1c(CN2CCC(c3c(F)cccc3C(F)(F)F)CC2)nc2cnccc21` [compound 228], for which the EC50 is over 458 nM. Same read-out and setting: to `C[C@@H]1CN(Cc2nc3cnccc3n2C)CC[C@@H]1c1ccc(Cl)cc1C(F)(F)F` (relative stereo) [compound 208] belongs 110 nM; to `Cc1cc(NC(=O)c2cccc(C3CCN(Cc4nc5ncccc5n4C)CC3)c2)n[nH]1` [compound 105], 3660 nM. The same measure, in the same setting: for `Cn1c(CN2CCC(c3ccc(F)c(Cl)c3)CC2)nc2ncccc21` [compound 101] the value was 313 nM; for `COc1cc(C(F)(F)F)ccc1[C@H]1CCN(Cc2nc3cnccc3n2C)C[C@H]1C` (single isomer, unassigned) [compound 141], 1310 nM; for `C[C@@H]1CN(Cc2nc3ncccc3n2C)CC[C@@H]1c1ccc(OC(F)(F)F)c(Cl)c1` (relative stereo) [compound 213], 253 nM. Regarding `C[C@@H]1CN(Cc2nc3cnccc3n2C)CC[C@@H]1c1ccc(C(F)(F)F)cc1` (relative stereo) [compound 71], the EC50 amounted to 75 nM.

For `C[C@@H]1CN(Cc2nc3ncccc3n2C)CC[C@@H]1c1ccc(Cl)cc1Cl` (relative stereo) [compound 155], the EC50 worked out at 22.9 nM. On the same count and under the same terms, for `Cn1c(CN2CCC(c3ccc(C(F)(F)F)cc3)CC2)nc2ncccc21` [compound 52] the value was 47.9 nM; for `C[C@@H]1CN(Cc2nc3ncccc3n2C)CC[C@@H]1c1ccc(C(F)(F)F)cc1Cl` (single isomer, unassigned) [compound 162], under 18 nM.

As for `COc1ccccc1C1CCN(Cc2nc3cccnc3n2C)CC1C` (stereo not shown) [compound 59], the EC50 came to 349 nM. The same measure, in the same setting: for `C[C@@H]1CN(Cc2nc3ncccc3n2C)CC[C@@H]1c1ccc(C(F)(F)F)cc1Cl` (single isomer, unassigned) [compound 163] the value was 396 nM; for `Cn1c(CN2CCC(c3ccc(Cl)c(F)c3)CC2)nc2cnccc21` [compound 107], 315 nM. On the same count and under the same terms, to `Cn1c(CN2CCC(c3ccc(C(F)(F)F)cc3)CC2)nc2ccncc21` [compound 93] belongs 196 nM; to `COc1cc(C(F)(F)F)ccc1C1CCN(Cc2nc3cnccc3n2C)CC1` [compound 63], 834 nM; to `Cn1c(CN2CCC(c3ccc(Cl)cc3F)CC2)nc2cnccc21` [compound 113], 81 nM. Same read-out and setting: for `Cn1c(CN2CCC(c3cc(C(F)(F)F)ccc3F)CC2)nc2ncccc21` [compound 58] the value was 5950 nM; for `CCCOc1ccc(Cl)cc1C1CCN(Cc2nc3cnccc3n2C)CC1` [compound 39], 396 nM. Turning to `C#CCOc1ccc(Cl)cc1C1CCN(Cc2nc3ncccc3n2C)CC1` [compound 45], the EC50 stood at 72.6 nM. The same measure, in the same setting: to `C[C@@H]1CN(Cc2nc3ncccc3n2C)CC[C@@H]1c1ccc(F)cc1C(F)(F)F` (relative stereo) [compound 204] belongs 28.3 nM. Same read-out and setting: for `Cn1c(CN2CCC(c3ccc(F)c(Cl)c3)CC2)nc2cccnc21` [compound 103] the value was 367 nM. As to `CC(C)Oc1cc(F)ccc1[C@H]1CCN(Cc2nc3cnccc3n2C)C[C@H]1C` (relative stereo) [compound 192], the EC50 amounted to 1170 nM.

For `CC(C)Oc1ccc([C@H]2CCN(Cc3nc4ncccc4n3C)C[C@H]2C)c(Cl)c1` (single isomer, unassigned) [compound 222], the EC50 was over 603 nM. Still for that read-out and setting: to `COc1cc(F)ccc1[C@H]1CCN(Cc2nc3cnccc3n2C)C[C@H]1C` (relative stereo) [compound 133] belongs 53.7 nM. Still for that read-out and setting: to `C[C@@H]1CN(Cc2nc3ncccc3n2C)CC[C@@H]1c1ccc2c(c1)CCO2` (relative stereo) [compound 200] belongs 469 nM. In the case of `C[C@@H]1CN(Cc2nc3cnccc3n2C)CC[C@@H]1c1ccc(OC(F)(F)F)cc1F` (single isomer, unassigned) [compound 159], the EC50 is under 31.3 nM.

The same test, now with this note: mGluR2 potentiator screen, FLIPR, EC10-EC20 glutamate challenge.
Regarding `Cn1c(CN2CCC(c3ccc(C(F)(F)F)cc3Cl)CC2)nc2cnccc21` [compound 273], the EC50 came out at 85 nM. Same read-out and setting: to `CC(C)Oc1ccc(C2CCN(Cc3nc4cnccc4n3C)CC2)c(Cl)c1` [compound 267] belongs 85.5 nM; to `Cn1c(CN2CCC(c3ccc(OC(F)F)cc3Cl)CC2)nc2ncccc21` [compound 266], 54.9 nM; to `Cn1c(CN2CCC(c3ccc(OC(F)F)cc3Cl)CC2)nc2cnccc21` [compound 265], 164 nM. On the same count and under the same terms, for `Cn1c(CN2CCC(c3ccc(OC(F)(F)F)cc3)CC2)nc2ncccc21` [compound 231] the value was 84.5 nM; for `C[C@@H]1CN(Cc2nc3cnccc3n2C)CC[C@@H]1c1ccc(OC(F)F)cc1Cl` (single isomer, unassigned) [compound 247], over 1410 nM.

`COc1cc(C2CCN(Cc3nc4cnccc4n3C)CC2)ccc1C(F)(F)F` [compound 278]: the EC50 came out at 245 nM.
